Where two headings read alike, the source gives them in different places.
Key:
Format in all cases: cell-based
[1] = tested on: bladder cancer cell line TSGH; experiment: WST-1 cell viability analysis, TSGH; settings: 72 hours, read-out: viability (survival rate) of TSGH cells
Description: (§1) The cell numbers were counted and reseed as 2×10^6 in cell culture plate/flask. Then, the culture medium were added to a volume of 10 ml, and the cells were cultured for 2-3 days. Then, the cells were suspended for loading into 96-well plates. The number of cells was 3000 and the volume of the culture medium was 100 μl each well.
(§2) Removing the original culture medium from 96-well plate. Then add 100 μl of commercially drug at a concentration of 10 μM per well. After 72 hours, add the diluted WST-1 reagent to the well with 100 μl/well, and the diluted WST-1 reagent was acquired from the dilution of 9:1 medium and WST-1 stock reagent. Finally, the total volume of each well was 200 μl/well. Culture the 96-well plate at 37° C. for 30 to 90 minutes. Detecting and calculate the survival rate of each cancer cells with an ELISA reader at OD450 nm.

[2] = tested on: C-33A (Cervical carcinoma); experiment: WST-1 cell viability analysis, C-33A; settings: Homo sapiens, 72 hours, read-out: viability (survival rate) of C-33A cells
Description: as §1, §2

[3] = tested on: 786-O (Renal adenocarcinoma); experiment: WST-1 cell viability analysis, 786-O; settings: Homo sapiens
Description: as §1, §2

[4] = tested on: MKN-45 (Gastric Adenocarcinoma); experiment: WST-1 cell viability analysis, MKN-45; settings: Homo sapiens, MKN-45, 10 μM, 72 hours, read-out: viability (survival rate) of MKN-45 cells
Description: as §1, §2

[5] = tested on: Hep3B (hepatocellular carcinoma); experiment: WST-1 cell viability analysis, Hep3B; settings: Homo sapiens
Description: as §1, §2

[6] = tested on: A375 (amelanotic melanoma); experiment: WST-1 cell viability analysis, A375; settings: Homo sapiens, A-375, 10 μM, 72 hours, read-out: viability (survival rate) of A375 cells

CC1=C(C(=O)OC(C)C)C(c2cccc([N+](=O)[O-])c2)C(C(=O)OC2CN(C(c3ccccc3)c3ccccc3)C2)=C(N)N1 (centres unmarked) [Azelnidipine]
viability at 10 µM ([1]; run 0510-10 min): 151%
viability at 10 µM ([1]; run 0512-10 min): 117%
viability at 10 µM ([1]; run 0515-10 min): 72%
viability at 10 µM ([1]; run 0517-10 min): 120%
viability at 10 µM ([2]; run 0524-10 min): 142%
viability at 10 µM ([2]; run 0526-10 min): 111%
viability at 10 µM ([2]; run 0529-10 min): 123%
viability at 10 µM ([2]; run 0531-10 min): 117%
viability at 10 µM ([3]; 786-0, 10 μM, 72 hours, run 0524-10 min, read-out: viability (survival rate) of 786-O cells): 88.6%
viability at 10 µM ([3]; 786-0, 10 μM, 72 hours, run 0526-10 min, read-out: viability (survival rate) of 786-O cells): 79.7%
viability at 10 µM ([3]; 786-0, 10 μM, 72 hours, run 0529-10 min, read-out: viability (survival rate) of 786-O cells): 66.5%
viability at 10 µM ([3]; 786-0, 10 μM, 72 hours, run 0531-10 min, read-out: viability (survival rate) of 786-O cells): 112%
viability at 10 µM ([3]; 786-0, 72 h, 10 μM, average of 4 tests, read-out: average viability of 786-O cells): 86.8%
viability at 10 µM ([3]; 786-0, 72 h, 10 μM, summary (786-O), read-out: Inhibitory effect, Kidney cancer): 86.8%
viability at 10 µM ([4]; run 0510-10 min): 174%
viability at 10 µM ([4]; run 0512-10 min): 184%
viability at 10 µM ([4]; run 0515-10 min): 68.5%
viability at 10 µM ([4]; run 0517-10 min): 130%
viability at 10 µM ([5]; 72 h, average of 4 tests, read-out: Average viability of Hep3B cells): 98.6%
viability at 10 µM ([5]; 72 hours, run 0612-20 min, read-out: viability (survival rate) of Hep3B cells): 114%
viability at 10 µM ([5]; 72 hours, run 0614-20 min, read-out: viability (survival rate) of Hep3B cells): 91.5%
viability at 10 µM ([5]; 72 hours, run 0616-20 min, read-out: viability (survival rate) of Hep3B cells): 97.9%
viability at 10 µM ([5]; 72 hours, run 0619-20 min, read-out: viability (survival rate) of Hep3B cells): 90.7%
viability at 10 µM ([6]; run 0602-30 min): 124%
viability at 10 µM ([6]; run 0607-10 min): 76%
viability at 10 µM ([6]; run 0609-10 min): 105%

From patent publication US20170312260A1 (LAUNX BIOMEDICAL CO., LTD., priority 2014, published 2017)
